Measured values taken from patent publication US10870647B2, “Imidazopyridine derivative, method for preparing same, and pharmaceutical composition containing same as active ingredient for preventing or treating cancer” (DAEGU-GYEONGBUK MEDICAL INNOVATION FOUNDATION, priority 2016, dated 2020).

Key:
Test in all cases: Kinase selectivity, scanMAX Kinase assay panel (DiscoverX), % control at 1 uM
Format in all cases: binding
[1] = target: T1, scanMAX Kinase assay panel (Homo sapiens, UniProt P53355); conditions: DAPK1; 1 uM; read-out: Percent Control (%)
T1 construct: purchased DiscoverX
Method in brief: (§1)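 Read-out is percent of control, derived from the signal with compound relative to positive and negative controls: (compound − positive)/(negative − positive) × 100. Each enzyme received test drug at 1 uM in DMSO, and values under 35% count as active.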

[2] = target: T2, scanMAX Kinase assay panel (Homo sapiens, UniProt Q9P0L2); conditions: MARK1; 1 uM; read-out: Percent Control (%)
T2 construct: purchased DiscoverX
Method in brief: as §1

[3] = target: T3, scanMAX Kinase assay panel (Homo sapiens, UniProt Q8NEB9); conditions: VPS34; 1 uM; read-out: Percent Control (%)
T3 construct: purchased DiscoverX
T3 sequence (Q8NEB9 whole entry): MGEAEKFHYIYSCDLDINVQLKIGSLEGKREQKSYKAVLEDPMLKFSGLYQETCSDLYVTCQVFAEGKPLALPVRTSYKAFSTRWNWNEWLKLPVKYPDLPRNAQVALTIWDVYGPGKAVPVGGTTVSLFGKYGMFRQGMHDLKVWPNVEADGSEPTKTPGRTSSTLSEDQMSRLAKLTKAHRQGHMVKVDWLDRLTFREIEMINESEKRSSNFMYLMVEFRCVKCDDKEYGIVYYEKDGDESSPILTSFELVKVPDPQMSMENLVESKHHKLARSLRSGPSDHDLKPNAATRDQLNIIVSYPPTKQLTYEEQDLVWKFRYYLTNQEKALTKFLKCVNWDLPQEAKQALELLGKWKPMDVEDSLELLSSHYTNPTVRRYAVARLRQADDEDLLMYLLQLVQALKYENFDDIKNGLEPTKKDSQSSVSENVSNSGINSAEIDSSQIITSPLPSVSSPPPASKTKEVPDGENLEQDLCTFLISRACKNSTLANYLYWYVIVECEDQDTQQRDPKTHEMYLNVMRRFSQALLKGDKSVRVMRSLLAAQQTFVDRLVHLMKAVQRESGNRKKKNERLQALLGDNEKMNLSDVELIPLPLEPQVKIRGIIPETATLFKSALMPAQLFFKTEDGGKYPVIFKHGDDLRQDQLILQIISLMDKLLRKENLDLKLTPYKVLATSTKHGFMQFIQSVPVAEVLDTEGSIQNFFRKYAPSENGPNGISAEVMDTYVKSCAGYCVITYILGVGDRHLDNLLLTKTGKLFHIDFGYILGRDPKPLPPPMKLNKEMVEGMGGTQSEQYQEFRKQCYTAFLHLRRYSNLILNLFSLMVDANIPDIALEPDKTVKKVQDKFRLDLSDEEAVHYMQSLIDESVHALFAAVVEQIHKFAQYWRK
Method in brief: as §1

[4] = target: T4, scanMAX Kinase assay panel (Homo sapiens, UniProt P42336, H1047Y); conditions: PIK3CA (H1047Y); 1 uM; read-out: Percent Control (%)
T4 construct: purchased DiscoverX
T4 sequence (P42336 whole entry H1047Y): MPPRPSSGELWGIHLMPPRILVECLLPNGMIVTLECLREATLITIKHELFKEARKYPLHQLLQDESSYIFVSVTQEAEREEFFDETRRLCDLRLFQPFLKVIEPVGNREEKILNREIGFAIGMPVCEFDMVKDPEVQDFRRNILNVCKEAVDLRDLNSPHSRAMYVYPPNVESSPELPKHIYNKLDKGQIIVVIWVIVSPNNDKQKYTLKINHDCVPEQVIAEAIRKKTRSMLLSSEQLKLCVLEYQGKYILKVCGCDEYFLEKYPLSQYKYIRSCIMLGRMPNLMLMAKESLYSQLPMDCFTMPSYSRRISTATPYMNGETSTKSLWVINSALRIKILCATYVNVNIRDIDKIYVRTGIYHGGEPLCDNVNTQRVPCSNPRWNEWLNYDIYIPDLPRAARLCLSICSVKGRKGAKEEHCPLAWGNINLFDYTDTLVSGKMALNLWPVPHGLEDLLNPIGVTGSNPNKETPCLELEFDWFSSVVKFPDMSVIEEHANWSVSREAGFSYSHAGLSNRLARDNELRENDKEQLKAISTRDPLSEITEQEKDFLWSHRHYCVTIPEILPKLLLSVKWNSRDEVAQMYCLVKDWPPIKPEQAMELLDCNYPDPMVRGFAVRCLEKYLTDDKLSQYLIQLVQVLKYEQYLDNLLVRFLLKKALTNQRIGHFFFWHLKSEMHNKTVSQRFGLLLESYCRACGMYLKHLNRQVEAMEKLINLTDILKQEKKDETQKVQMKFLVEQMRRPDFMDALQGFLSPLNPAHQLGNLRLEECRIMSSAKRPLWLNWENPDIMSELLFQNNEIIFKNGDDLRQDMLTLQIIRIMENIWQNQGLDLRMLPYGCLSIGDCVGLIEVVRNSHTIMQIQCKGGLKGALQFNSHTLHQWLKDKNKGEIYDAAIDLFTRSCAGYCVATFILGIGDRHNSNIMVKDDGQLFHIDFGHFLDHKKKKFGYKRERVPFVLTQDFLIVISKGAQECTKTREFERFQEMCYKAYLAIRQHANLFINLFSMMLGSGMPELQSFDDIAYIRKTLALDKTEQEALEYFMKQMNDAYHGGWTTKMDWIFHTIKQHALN
Method in brief: as §1

[5] = target: T5, scanMAX Kinase assay panel (Homo sapiens, UniProt O00238); conditions: BMPR1B; 1 uM; read-out: Percent Control (%)
T5 construct: purchased DiscoverX
Method in brief: as §1

[6] = target: T6, scanMAX Kinase assay panel (Homo sapiens, UniProt Q9Y6E0); conditions: MST3; 1 uM; read-out: Percent Control (%)
T6 construct: purchased DiscoverX
T6 sequence (Q9Y6E0 whole entry): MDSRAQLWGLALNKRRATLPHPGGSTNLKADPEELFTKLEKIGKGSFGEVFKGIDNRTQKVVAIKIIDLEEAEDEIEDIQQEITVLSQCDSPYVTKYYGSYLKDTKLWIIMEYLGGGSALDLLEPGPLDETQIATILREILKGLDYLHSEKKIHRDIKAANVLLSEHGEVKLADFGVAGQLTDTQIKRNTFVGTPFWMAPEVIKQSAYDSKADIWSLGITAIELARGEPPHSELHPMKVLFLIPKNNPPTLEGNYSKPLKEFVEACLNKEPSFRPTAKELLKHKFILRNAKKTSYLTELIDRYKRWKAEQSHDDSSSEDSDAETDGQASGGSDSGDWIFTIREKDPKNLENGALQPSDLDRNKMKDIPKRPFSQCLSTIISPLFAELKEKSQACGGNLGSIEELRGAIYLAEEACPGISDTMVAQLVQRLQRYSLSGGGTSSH
Method in brief: as §1

[7] = target: T7, scanMAX Kinase assay panel (Homo sapiens, UniProt Q9P289); conditions: MST4; 1 uM; read-out: Percent Control (%)
T7 construct: purchased DiscoverX
T7 sequence (Q9P289 whole entry): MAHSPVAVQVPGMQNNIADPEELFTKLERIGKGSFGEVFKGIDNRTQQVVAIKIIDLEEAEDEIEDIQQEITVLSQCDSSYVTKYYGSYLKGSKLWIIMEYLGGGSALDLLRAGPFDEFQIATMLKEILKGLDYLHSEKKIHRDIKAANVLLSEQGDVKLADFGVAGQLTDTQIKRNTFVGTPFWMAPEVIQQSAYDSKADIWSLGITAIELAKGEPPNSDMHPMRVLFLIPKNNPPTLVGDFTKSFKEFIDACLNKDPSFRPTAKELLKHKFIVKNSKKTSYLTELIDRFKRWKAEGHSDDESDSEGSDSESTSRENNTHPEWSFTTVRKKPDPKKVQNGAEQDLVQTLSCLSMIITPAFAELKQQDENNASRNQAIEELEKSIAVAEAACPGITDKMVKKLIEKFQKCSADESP
Method in brief: as §1

[8] = target: T8, scanMAX Kinase assay panel (Homo sapiens, UniProt O43283); conditions: LZK; 1 uM; read-out: Percent Control (%)
T8 construct: purchased DiscoverX
T8 sequence (O43283 1-966): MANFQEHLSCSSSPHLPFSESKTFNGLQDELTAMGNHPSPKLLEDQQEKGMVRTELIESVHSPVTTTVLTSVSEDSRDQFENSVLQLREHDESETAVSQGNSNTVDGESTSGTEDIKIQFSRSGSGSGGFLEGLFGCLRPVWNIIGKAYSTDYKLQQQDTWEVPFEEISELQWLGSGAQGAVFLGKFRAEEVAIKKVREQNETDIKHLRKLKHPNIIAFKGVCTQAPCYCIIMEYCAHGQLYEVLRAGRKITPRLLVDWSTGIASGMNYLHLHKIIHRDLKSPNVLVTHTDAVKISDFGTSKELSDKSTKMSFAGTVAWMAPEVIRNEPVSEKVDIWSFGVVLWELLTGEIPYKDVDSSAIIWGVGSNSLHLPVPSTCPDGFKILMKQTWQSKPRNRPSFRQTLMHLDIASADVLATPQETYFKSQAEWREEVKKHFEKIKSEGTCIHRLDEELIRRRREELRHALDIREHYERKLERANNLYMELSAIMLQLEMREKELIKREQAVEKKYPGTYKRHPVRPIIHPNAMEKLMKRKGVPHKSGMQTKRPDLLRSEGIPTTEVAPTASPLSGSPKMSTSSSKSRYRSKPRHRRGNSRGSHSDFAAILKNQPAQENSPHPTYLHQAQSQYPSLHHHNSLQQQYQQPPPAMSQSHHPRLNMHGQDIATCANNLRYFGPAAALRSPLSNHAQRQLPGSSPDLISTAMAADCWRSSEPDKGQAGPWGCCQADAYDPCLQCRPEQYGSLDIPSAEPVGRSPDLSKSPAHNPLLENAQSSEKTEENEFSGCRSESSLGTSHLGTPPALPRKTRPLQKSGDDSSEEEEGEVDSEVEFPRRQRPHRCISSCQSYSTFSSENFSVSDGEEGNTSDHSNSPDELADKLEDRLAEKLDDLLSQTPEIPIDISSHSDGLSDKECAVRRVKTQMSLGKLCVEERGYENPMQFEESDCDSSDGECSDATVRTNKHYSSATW
Method in brief: as §1

[9] = target: T9, scanMAX Kinase assay panel (Homo sapiens, UniProt P07332); conditions: FES; 1 uM; read-out: Percent Control (%)
T9 construct: purchased DiscoverX
Method in brief: as §1

[10] = target: T10, scanMAX Kinase assay panel (Homo sapiens, UniProt Q06187); conditions: BTK; 1 uM; read-out: Percent Control (%)
T10 construct: purchased DiscoverX
T10 sequence (Q06187 whole entry): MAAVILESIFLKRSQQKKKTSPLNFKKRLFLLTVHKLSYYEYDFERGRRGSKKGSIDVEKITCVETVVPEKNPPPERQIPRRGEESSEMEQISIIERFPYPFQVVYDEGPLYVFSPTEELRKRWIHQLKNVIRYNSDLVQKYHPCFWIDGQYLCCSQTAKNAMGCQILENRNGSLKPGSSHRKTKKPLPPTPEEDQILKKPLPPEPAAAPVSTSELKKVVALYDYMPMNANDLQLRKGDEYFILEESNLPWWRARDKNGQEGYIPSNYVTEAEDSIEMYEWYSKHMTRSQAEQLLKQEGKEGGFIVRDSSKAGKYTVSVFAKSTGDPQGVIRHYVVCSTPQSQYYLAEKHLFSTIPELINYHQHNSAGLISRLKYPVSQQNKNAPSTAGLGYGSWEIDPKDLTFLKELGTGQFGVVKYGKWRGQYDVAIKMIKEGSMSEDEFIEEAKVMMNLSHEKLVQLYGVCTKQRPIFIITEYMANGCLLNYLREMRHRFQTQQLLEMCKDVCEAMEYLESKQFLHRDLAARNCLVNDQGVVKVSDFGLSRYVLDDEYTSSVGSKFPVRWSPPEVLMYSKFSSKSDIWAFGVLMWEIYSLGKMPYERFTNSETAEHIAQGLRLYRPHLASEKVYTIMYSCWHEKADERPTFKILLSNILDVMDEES
Method in brief: as §1

[11] = target: T11, scanMAX Kinase assay panel (Homo sapiens, UniProt P50613); conditions: CDK7; 1 uM; read-out: Percent Control (%)
T11 construct: purchased DiscoverX
Method in brief: as §1

[12] = target: T12, scanMAX Kinase assay panel (Homo sapiens, UniProt P08581, M1250T); conditions: MET (M1250T); 1 uM; read-out: Percent Control (%)
T12 construct: purchased DiscoverX
T12 sequence (P08581 25-1390 M1250T): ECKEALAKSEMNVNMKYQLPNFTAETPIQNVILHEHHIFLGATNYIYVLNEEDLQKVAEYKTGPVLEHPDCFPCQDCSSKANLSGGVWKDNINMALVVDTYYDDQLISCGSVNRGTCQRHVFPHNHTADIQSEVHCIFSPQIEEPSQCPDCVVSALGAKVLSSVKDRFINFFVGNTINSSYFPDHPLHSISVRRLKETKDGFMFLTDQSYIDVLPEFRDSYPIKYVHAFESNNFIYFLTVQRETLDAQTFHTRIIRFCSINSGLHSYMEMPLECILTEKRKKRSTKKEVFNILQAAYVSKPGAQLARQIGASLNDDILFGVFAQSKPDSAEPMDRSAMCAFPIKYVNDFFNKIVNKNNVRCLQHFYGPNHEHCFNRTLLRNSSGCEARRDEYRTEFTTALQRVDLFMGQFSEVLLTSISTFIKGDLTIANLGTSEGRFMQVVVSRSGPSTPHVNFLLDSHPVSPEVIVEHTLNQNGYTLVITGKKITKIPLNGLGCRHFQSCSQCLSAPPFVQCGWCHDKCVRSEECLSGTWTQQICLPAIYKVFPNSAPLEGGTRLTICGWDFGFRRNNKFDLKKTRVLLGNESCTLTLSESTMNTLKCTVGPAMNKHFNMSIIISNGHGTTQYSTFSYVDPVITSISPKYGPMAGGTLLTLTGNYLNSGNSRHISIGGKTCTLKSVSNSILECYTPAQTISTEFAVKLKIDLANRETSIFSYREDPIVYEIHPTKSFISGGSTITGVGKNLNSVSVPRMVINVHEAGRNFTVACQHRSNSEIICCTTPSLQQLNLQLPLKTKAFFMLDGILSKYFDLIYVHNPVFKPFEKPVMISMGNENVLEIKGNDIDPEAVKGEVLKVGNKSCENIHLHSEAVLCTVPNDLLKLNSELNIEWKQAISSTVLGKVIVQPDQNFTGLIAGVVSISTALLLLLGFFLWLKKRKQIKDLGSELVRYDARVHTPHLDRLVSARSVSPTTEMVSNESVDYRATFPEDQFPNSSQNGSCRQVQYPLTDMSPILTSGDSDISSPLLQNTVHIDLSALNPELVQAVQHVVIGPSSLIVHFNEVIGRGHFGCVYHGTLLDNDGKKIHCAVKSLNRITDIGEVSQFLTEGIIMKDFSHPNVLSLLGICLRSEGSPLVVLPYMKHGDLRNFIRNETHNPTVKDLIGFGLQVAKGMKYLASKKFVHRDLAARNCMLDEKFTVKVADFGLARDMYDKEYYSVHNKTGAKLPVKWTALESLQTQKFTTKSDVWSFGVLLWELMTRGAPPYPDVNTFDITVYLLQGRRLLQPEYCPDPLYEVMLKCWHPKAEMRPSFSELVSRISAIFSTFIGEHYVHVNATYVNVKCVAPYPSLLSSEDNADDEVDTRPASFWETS
Method in brief: as §1

Row | Compound | remaining binding at 1 µM [1] [%] | remaining binding at 1 µM [2] [%] | remaining binding at 1 µM [3] [%] | remaining binding at 1 µM [4] [%] | remaining binding at 1 µM [5] [%] | remaining binding at 1 µM [6] [%] | remaining binding at 1 µM [7] [%] | remaining binding at 1 µM [8] [%] | remaining binding at 1 µM [9] [%] | remaining binding at 1 µM [10] [%] | remaining binding at 1 µM [11] [%] | remaining binding at 1 µM [12] [%]
1 | Cc1ccc(NC(=O)C2(C(=O)Nc3ccc(F)cc3)CC2)cc1C#Cc1cnc2c(Nc3cnn(C(C)C)c3)cccn12 [Example 78] | 98 | 100 | 80 | 100 | 100 | 100 | 100 | 94 | 100 | 100 | 82 | 91
2 | Cc1cn(-c2cc(NC(=O)c3ccc(C)c(C#Cc4cnc5c(Nc6cnn(C)c6)cccn45)c3)cc(C(F)(F)F)c2)cn1 [Example 12, 4-methyl-N-(3-(4-methyl-1H-imidazol-1-yl)-5-(trifluoromethyl)phenyl)-3-((8-((1-methyl-1H-pyrazol-4-yl)amino)imidazo[1,2-a]pyridin-3-yl)ethynyl)benzamide] | 80 | 95 | 96 | 84 | 100 | 86 | 91 | 100 | 6 | 37 | 66 | 28
3 | Cc1ccc(C(=O)Nc2ccc(CN3CCN(C)CC3)c(C(F)(F)F)c2)cc1C#Cc1cnc2c(Nc3cnn(C)c3)cccn12 [Example 1, 4-methyl-3-((8-((1-methyl-1H-pyrazol-4-yl)amino)imidazo[1,2-a]pyridin-3-yl)ethynyl)-N-(4-((4-methylpiperazin-1-yl)methyl)-3-(trifluoromethyl)phenyl)benzamide] | 87 | 78 | 100 | 74 | 99 | 62 | 55 | 71 | 0 | 1 | 4 | 32
